Measured values published in article PMC12655819 (Pharmaceuticals, 2025).
Marks after values point to notes of the source that are not given here.

Columns and labels:
Assay type in all cases: in vivo, human
[1] = Pharmacokinetics from liquid (wet) saliva collected with Salivette (sMPA, sMPAG)
Protocol: (§1) The AUC0–4, Tmax, and Cmax parameters were calculated using the R (version 4.5.1) package software (R Core Team, 2025), supported by RStudio (version 2025.05.1+513) from Posit PBC software (Boston, MA, USA). […] The vMPA and vMPAG capillary blood levels were corrected using formulas validated in our department (partially published by Kocur et al.) and expressed as estimated capillary plasma concentrations. […] Individual PK profiles for each patient included in the study are provided in the Supplementary File (Figures S4 and S5).
The concentrations of sMPA and sMPAG in saliva were determined using a previously described LC-MS/MS method. Briefly, 100 µL of saliva was used for analysis. […] Samples were vortexed and evaporated to dryness. The dry residues were reconstituted in 100 μL of a mobile phase consisting of a 1:4 (v/v) mixture of methanol and water, both of which contained 0.1% formic acid. After double centrifugation, the samples were analyzed using a Shimadzu Ultra-Performance Liquid Chromatography (UPLC) system (Shimadzu Co., Kyoto, Japan) coupled with a triple quadrupole mass spectrometer (LCMS-8030; Simadzu Co., Kyoto, Japan). The method was linear over the concentration range of 2–500 μg/L for both sMPA and sMPAG. This part of the work was carried out with the support of the Centre of Innovative Pharmaceutical Technology, Poznan University of Medical Sciences (Poznan, Poland).
(§2) Additionally, the unstimulated saliva samples were simultaneously collected using the Salivette® device (Sarstedt, Nümbrecht, Germany) and Mitra™ 20 µL microsampling tips (Neoteryx/Trajan, Torrance, CA, USA (all saliva samples simultaneously to plasma and capillary blood sampling: 0, 0.5, 1, 2, and 4 h after drug administration). Patients had not eaten for at least 30 min before saliva collection, and their mouths were rinsed with water. The study was conducted in accordance with the Declaration of Helsinki and the International Council for Harmonization Guideline for Good Clinical Practice. The protocol was approved by the Bioethics Committee of the Children’s Memorial Health Institute, Warsaw, Poland (approval No. 15/KBE/2023, with subsequent amendments). Written informed consent was obtained from all participants and their legal guardians.

[2] = Pharmacokinetics from plasma unbound levels in plasma ultrafiltrate (fMPA, fMPAG); conditions: free level in plasma ultrafiltrate
Protocol: as §1
Next, the sample was centrifuged at 3000× g for 5 min at ambient conditions, and the supernatant was transferred into a chromatographic vial. Sample processing was performed at the Department of Drug Chemistry, Pharmaceutical and Biomedical Analysis, Medical University of Warsaw, Poland.
(§3) From each patient (if they consented to all sampling types), four samples were collected simultaneously at all defined time points of the dynamic PK profile (0, 0.5, 1, 2, and 4 h after drug administration). Whole blood was collected using standard venipuncture by a phlebotomist into a K3-EDTA test tube (Sarstedt, Nümbrecht, Germany). Plasma for analytical determination was obtained by centrifuging a portion of the whole blood and stored at −40 °C until assay. At the same time, 10 µL capillary blood samples were collected from a finger prick using the Mitra™ device (VAMS samples were stored in light-protected aluminum zip bags with desiccant at room temperature).

[3] = Pharmacokinetics from capillary blood collected with Mitra VAMS (vMPA, vMPAG)
Protocol: as §1
Subsequently, the tip (after at least 1 h of drying) was placed in an 1.5 mL Eppendorf-type test tube (Eppendorf AG, Hamburg, Germany) containing 150 μL of pure deionized water. Next, the test tube was shaken at room temperature for 1 h using the automatic rotary vortex. Subsequently, 10 μL of IS solution and 150 μL of the precipitation mixture were added. The sample was then processed as described in Section 4.3.4. Sample processing was carried out at the Department of Drug Chemistry, Pharmaceutical and Biomedical Analysis, Medical University of Warsaw, Poland [21].
as §3

[4] = Pharmacokinetics from dried saliva collected with Mitra VAMS (vsMPA, vsMPAG)
Protocol: as §1
Samples were sonicated (36 °C, 30 min), vortexed (15 min), and frozen (−20 °C, 15 min). After centrifugation (10 min, 25,155× g), 350 µL of supernatant was transferred to a total recovery borosilicate vial (Finneran, Vineland, NJ, USA) and evaporated to dryness under a stream of nitrogen (40 °C) using Ultravap® Levante (Porvair, Hampshire, Great Britain). The residue was reconstituted in 150 µL of mobile phase A, filtered in a Verex™ vial, and 5 µL was injected into the LC–MS/MS system. Analyses were performed at the Department of Drug Chemistry, Pharmaceutical and Biomedical Analysis, Medical University of Warsaw, Poland.
as §2

[5] = Pharmacokinetics from total plasma levels (tMPA, tMPAG), LC-MS/MS; conditions: total plasma level
Protocol: as §1
Briefly, 50 μL of plasma was diluted with 90 μL of deionized water, and 10 μL of IS (d3-MPA) was added. Next, 400 μL of the precipitation mixture (a 0.1 M aqueous zinc sulfate solution and acetonitrile, 50:50 (v/v)) was added. The sample was then shaken for 10 min at room temperature using an automatic rotary vortex (Ohaus, Parsippany, NJ, USA) and centrifuged for 10 min at 13,500× g at 4 °C thereafter. The supernatant was transferred into chromatographic vials and analyzed using LC-MS/MS. Sample processing was performed at the Department of Drug Chemistry, Pharmaceutical and Biomedical Analysis, Medical University of Warsaw, Poland.
as §3

[6] = wet saliva, pediatric renal transplant recipients (n = 20) on MMF, mean (range)
[7] = 0 h (pre-dose), n = 20, mean ± SD
[8] = 0.5 h post-dose, n = 20, mean ± SD
[9] = 1 h post-dose, n = 20, mean ± SD
[10] = 2 h post-dose, n = 20, mean ± SD
[11] = 4 h post-dose, n = 20, mean ± SD
[12] = normalized to MMF dose, n = 20, mean (range)
[13] = pediatric renal transplant recipients (n = 20) on MMF (CellCept), steady state, 0–4 h post-dose, mean (range)
[14] = pediatric renal transplant recipients (n = 20) on MMF, mean (range)
[15] = dried saliva (Mitra VAMS), pediatric renal transplant recipients (n = 20) on MMF, mean (range)

COc1c(C)c2c(c(O[C@@H]3O[C@H](C(=O)O)[C@@H](O)[C@H](O)[C@H]3O)c1C/C=C(\C)CCC(=O)O)C(=O)OC2 [MPAG, mycophenolic acid glucuronide]
Cmax ([1]; wet saliva (unstimulated, Salivette), pediatric renal transplant recipients (n = 20) on MMF, 0–4 h post-dose, mean (range)): 73.74 (22.00–146.00) µg/L | C0 concentration ([1]; wet saliva, 0 h (pre-dose), n = 20, mean ± SD): 19.135 ± 12.712 µg/L | C0.5 concentration ([1]; wet saliva, 0.5 h post-dose, n = 20, mean ± SD): 39.659 ± 26.611 µg/L | C1 concentration ([1]; wet saliva, 1 h post-dose, n = 20, mean ± SD): 70.173 ± 44.943 µg/L | C2 concentration ([1]; wet saliva, 2 h post-dose, n = 20, mean ± SD): 39.371 ± 25.210 µg/L | C4 concentration ([1]; wet saliva, 4 h post-dose, n = 20, mean ± SD): 22.417 ± 15.097 µg/L | AUC(0–4) Normalized to Drug Dose ([1]; wet saliva, normalized to MMF dose, n = 20, mean (range)): 352.10 (119.88–857.42) ^c µg × h/mL × g | AUC(0–4) [1, 6]: 158 µg·h/L | Tmax [1, 6]: 1.08 (0.50–2.00) h | C0 concentration [2, 7]: 3.893 ± 2.073 mg/L | C0.5 concentration [2, 8]: 6.264 ± 4.238 mg/L | C1 concentration [2, 9]: 8.029 ± 4.393 mg/L | C2 concentration [2, 10]: 6.889 ± 3.791 mg/L | C4 concentration [2, 11]: 4.701 ± 2.218 mg/L | AUC(0–4) Normalized to Drug Dose [2, 12]: 66.47 (19.97–195.68) ^d mg × h/mL × g | Cmax [2, 13]: 8.98 (3.85–19.81) mg/L | AUC(0–4) [2, 14]: 25.2 mg·h/L | Tmax [2, 14]: 1.55 (0.50–2.00) h | C0 concentration [3, 7]: 22.481 ± 10.350 mg/L | C0.5 concentration [3, 8]: 34.340 ± 14.354 mg/L | C1 concentration [3, 9]: 44.003 ± 20.520 mg/L | C2 concentration [3, 10]: 34.039 ± 12.356 mg/L | C4 concentration [3, 11]: 25.381 ± 11.908 mg/L | AUC(0–4) ([3]; corrected to estimated capillary plasma concentration, n = 20, mean (range)): 133 mg·h/L | Cmax ([3]; corrected to estimated capillary plasma concentration, pediatric renal transplant recipients (n = 20) on MMF, mean (range)): 47.73 (19.80–110.76) mg/L | AUC(0–4) Normalized to Drug Dose [3, 12]: 361.35 (100.49–1064.33) ^d mg × h/mL × g | Tmax [3, 14]: 1.38 (0.50–2.00) h | Cmax ([4]; dried saliva (Mitra VAMS 20 µL), pediatric renal transplant recipients (n = 20) on MMF, 0–4 h post-dose, mean (range)): 70.30 (19.04–146.54) µg/L | C0 concentration ([4]; dried saliva (Mitra VAMS), 0 h (pre-dose), n = 20, mean ± SD): 17.834 ± 12.122 µg/L | C0.5 concentration ([4]; dried saliva (Mitra VAMS), 0.5 h post-dose, n = 20, mean ± SD): 37.704 ± 24.598 µg/L | C1 concentration ([4]; dried saliva (Mitra VAMS), 1 h post-dose, n = 20, mean ± SD): 67.422 ± 44.462 µg/L | C2 concentration ([4]; dried saliva (Mitra VAMS), 2 h post-dose, n = 20, mean ± SD): 39.258 ± 25.317 µg/L | C4 concentration ([4]; dried saliva (Mitra VAMS), 4 h post-dose, n = 20, mean ± SD): 19.762 ± 13.638 µg/L | AUC(0–4) Normalized to Drug Dose ([4]; dried saliva (Mitra VAMS), normalized to MMF dose, n = 20, mean (range)): 335.45 (115.15–902.00) ^c µg × h/mL × g | AUC(0–4) [4, 15]: 145 µg·h/L | Tmax [4, 15]: 1.03 (0.50–2.00) h | C0 concentration [5, 7]: 23.805 ± 12.32 mg/L | C0.5 concentration [5, 8]: 37.800 ± 17.081 mg/L | C1 concentration [5, 9]: 48.647 ± 22.134 mg/L | C2 concentration [5, 10]: 34.258 ± 13.977 mg/L | C4 concentration [5, 11]: 27.075 ± 12.413 mg/L | AUC(0–4) Normalized to Drug Dose [5, 12]: 384.94 (106.81–1050.08) ^d mg × h/mL × g | Cmax [5, 13]: 49.54 (19.24–109.28) mg/L | AUC(0–4) [5, 14]: 144 mg·h/L | Tmax [5, 14]: 1.33 (0.50–2.00) h
